Laboratory results from ChEMBL document CHEMBL1697781, “Assessment of the health effects of chemicals in humans: II. Construction of an adverse effects database for QSAR modeling” (Curr Drug Discov Technol, 2004).

How the values were obtained:
Conditions in all cases: human; call rule not given here
[1] = test system: Hepatotoxicity; test: FDA HLAED, gamma-glutamyl transferase (GGT) increase
[2] = test system: Hepatotoxicity; test: FDA HLAED, liver enzyme composite activity
[3] = test system: Hepatotoxicity; test: FDA HLAED, alkaline phosphatase increase
[4] = test system: Hepatotoxicity; test: FDA HLAED, serum glutamic oxaloacetic transaminase (SGOT) increase
[5] = test system: Hepatotoxicity; test: FDA HLAED, serum glutamic pyruvic transaminase (SGPT) increase
[6] = test system: Hepatotoxicity; test: FDA HLAED, lactate dehydrogenase (LDH) increase
Wherever GGT Increase - Index Value is given: reference of the scale not given here.
Wherever LDH Increase - Index Value is given: reference of the scale not given here.

| Structure (SMILES) | GGT Increase - Activity Score [1] | GGT Increase - Index Value [1] | GGT Increase - Number of Reports [1] | Composite Activity - Active [2] | Composite Activity - Marginal [2] | Composite Activity - Score [2] | Alkaline Phosphatase Increase - Activity Score [3] | Alkaline Phosphatase Increase - Index Value [3] | Alkaline Phosphatase Increase - Number of Reports [3] | SGOT Increase - Activity Score [4] | SGOT Increase - Index Value [4] | SGOT Increase - Number of Reports [4] | SGPT Increase - Activity Score [5] | SGPT Increase - Index Value [5] | SGPT Increase - Number of Reports [5] | LDH Increase - Activity Score [6] | LDH Increase - Index Value [6] | LDH Increase - Number of Reports [6] |
| --- | --- | --- | --- | --- | --- | --- | --- | --- | --- | --- | --- | --- | --- | --- | --- | --- | --- | --- |
| CC(C)(C)NCC(O)c1ccc(O)c(CO)n1 (stereo not given) [PIRBUTEROL] | Inactive | 0 | < 4 | 0 | 0 | Inactive | Inactive | 0 | < 4 | Inactive | 0.3 | < 4 | Inactive | 0 | < 4 | Inactive | 0 | < 4 |
| CN1C(C(=O)Nc2ccccn2)=C(O)c2ccccc2S1(=O)=O [PIROXICAM] | Inactive | 0 | < 4 | 0 | 0 | Inactive | Inactive | 2.6 | >= 4 | Inactive | 1.7 | >= 4 | Inactive | 0.9 | >= 4 | Inactive | 0.5 | < 4 |
| COc1cc([C@@H]2c3cc4c(cc3[C@H](O)[C@H]3COC(=O)[C@H]23)OCO4)cc(OC)c1OC [PODOFILOX] | Inactive | 0 | < 4 | 0 | 0 | Inactive | Inactive | 0 | < 4 | Inactive | 0 | < 4 | Inactive | 0 | < 4 | Inactive | 0 | < 4 |
| CC[C@H](C)C(=O)O[C@H]1C[C@H](O)C=C2C=C[C@H](C)[C@H](CC[C@@H](O)C[C@@H](O)CC(=O)O)[C@H]21 [PRAVASTATIN] | Active | 5.3 | >= 4 | 4 | 1 | Active | Active | 4.5 | >= 4 | Active | 6.2 | >= 4 | Active | 6.3 | >= 4 | Marginally Active | 3.1 | >= 4 |
| O=C1CN=C(c2ccccc2)c2cc(Cl)ccc2N1CC1CC1 [PRAZEPAM] | Inactive | 0 | < 4 | 0 | 0 | Inactive | Inactive | 0.3 | < 4 | Inactive | 0.3 | < 4 | Inactive | 0.3 | < 4 | Inactive | 0 | < 4 |
